Test results as given in US20240384268A1, “Oligonucleotides” (Hudson Institute of Medical Research, priority 2021, published 2024).
l = locked nucleic acid (LNA); d = 2'-deoxy (DNA)

Experiments:
STING = target: T1, STING (Homo sapiens, UniProt Q86WV6); experiment: STING agonist (GSK, DMXAA)-driven IP-10 in MG-63 cells and immortalised mouse BMDMs; format: cell-based; conditions: C2-Mut1 500 nM 6 h (GSK 100 nM, DMXAA 50 μg/ml); MOE/LNA ASOs 1 mM as printed (GSK, MG-63)
T1 construct: host or cells: MG-63 (human osteosarcoma)

cGAS [1] = target: T2, cGAS (Homo sapiens, UniProt Q8N884); experiment: ISD70-driven IP-10 production in MG-63 cells; format: cell-based; parameters: endogenous in cells
TLR3 = target: T3, TLR3 (Homo sapiens, UniProt O15455); experiment: pIC-driven IP-10 in MG-63 cells; format: cell-based; parameters: host or cells: MG-63 (human osteosarcoma); conditions: 1 mM ASO as printed, single preliminary experiment
T3 sequence (O15455 24-904): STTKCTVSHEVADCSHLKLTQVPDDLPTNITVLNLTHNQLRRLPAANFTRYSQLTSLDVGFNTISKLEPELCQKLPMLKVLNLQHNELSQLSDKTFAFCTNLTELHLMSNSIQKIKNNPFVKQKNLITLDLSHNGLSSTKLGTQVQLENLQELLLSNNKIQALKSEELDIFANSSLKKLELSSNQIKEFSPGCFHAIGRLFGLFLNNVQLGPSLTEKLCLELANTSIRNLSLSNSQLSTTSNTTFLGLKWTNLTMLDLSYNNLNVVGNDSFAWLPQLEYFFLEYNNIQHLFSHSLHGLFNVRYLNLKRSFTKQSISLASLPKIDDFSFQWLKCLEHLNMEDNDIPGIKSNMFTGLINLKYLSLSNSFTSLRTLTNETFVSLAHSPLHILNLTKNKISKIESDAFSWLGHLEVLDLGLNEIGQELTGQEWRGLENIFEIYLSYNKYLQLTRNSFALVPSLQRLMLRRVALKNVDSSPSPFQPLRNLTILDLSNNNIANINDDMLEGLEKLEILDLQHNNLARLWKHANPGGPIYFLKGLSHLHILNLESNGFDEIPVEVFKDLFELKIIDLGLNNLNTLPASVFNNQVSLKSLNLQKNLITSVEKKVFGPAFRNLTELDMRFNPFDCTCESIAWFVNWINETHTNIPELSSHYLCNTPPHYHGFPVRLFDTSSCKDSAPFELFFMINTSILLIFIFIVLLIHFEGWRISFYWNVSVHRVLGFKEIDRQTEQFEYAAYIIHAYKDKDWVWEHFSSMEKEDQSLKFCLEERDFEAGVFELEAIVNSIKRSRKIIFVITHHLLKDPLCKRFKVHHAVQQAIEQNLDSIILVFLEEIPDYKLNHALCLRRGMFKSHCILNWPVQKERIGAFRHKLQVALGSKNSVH
Description: FIG. 25: MG-63 were pre-treated for […] with […] indicated concentrations of ASOs (except for B3 and HPRT847Mut, used at 500 nM), prior to overnight transfection with ISD, stimulation with […] pIC or 100 nM GSK (Valentin et al., 2021). IP10 levels were measured and normalised to GSK only condition, after background correction. Data shown are from a single experiment in biological triplicate (+/−SEM).

cGAS [2] = target: T2, cGAS; experiment: ISD70-driven IP-10 (and IFN-β) production in THP-1 cells, ELISA; format: cell-based; parameters: endogenous in cells; host or cells: THP-1 (undifferentiated); conditions: THP-1
cGAS [3] = target: cGAS (Mus musculus, UniProt Q8C6L5); experiment: ISD-driven IP-10 production in immortalised mouse BMDMs; format: cell-based; parameters: endogenous in cells; host or cells: immortalised wild-type mouse bone marrow macrophages (iBMDMs); conditions: iBMDMs, 500 nM ASO
mouse cGAS = target: T4, mouse cGAS (Mus musculus, UniProt Q8C6L5); experiment: ISD45-driven ISRE-luciferase in mouse LL171 cells; format: cell-based; conditions: 2′OMe or PS oligos 50-600 nM, ISD45 2.5 μg/ml overnight
T4 construct: endogenous in cells; host or cells: LL171 (mouse L929 cells with ISRE-Luciferase)
Description: In such examples, inhibition of cGAS activity can be identified by observation of an overall decreased cGAS response of the cell population, or a lower proportion of cells having cGAS-positive activity as compared to positive control condition in which cells are treated with cGAS agonist in the absence of the oligonucleotide (or in the presence of an appropriate control inhibitory agent). In one example, THP-1 or HT-29 cells are transfected with ISD70 and incubated with an oligonucleotide. cGAS activity can then be determined by cytokine (e.g., IP-10 and/or IFNβ) expression (e.g., gene and/or protein expression) and/or secretion levels, such as by ELISA. A similar assay can be performed with LL171 cells transfected with ISD45. […] By way of example, cGAS enzymatic activity may be assessed in vitro using recombinant cGAS and then measuring activity thereof by way of a cGAMP ELISA.
For cGAS stimulations, cells were treated for indicated duration with ASOs, prior to transfection with ISD70 (human cells) or ISD45 (mouse cells) (the ASOs were not washed off prior to ISD transfection unless otherwise indicated). The cGAS ligands ISD45 (Stetson and Medzhitov, 2006) and ISD70 (also known as VACV-70 (Unterholzner et al., 2010)) (Table 1) were resuspended as follows: 5 1d of sense and 5 μl of antisense strands at 10 μg/μl were added to 90 μl PBS under sterile conditions, heated at 75° C. for 30 min, prior to letting cool down at room temperature and aliquoting (stock at 1 μg/1 l). The ISDs were transfected at a concentration of […] at a ratio of 1 μg:1 μl with Lipofectamine 2000 in Opti-MEM (Thermo Fisher Scientific). HEK-TLR3, HEK-TLR7 and […] were treated with indicated concentration of ASOs for 20-50 min, prior to stimulation with poly(I:C) (Invivogen), R848 (Invivogen), Motolimod (MedChemExpress) and the Class B CpG oligonucleotides ODN 2006 (synthesised by IDT and resuspended in RNase-free TE buffer [Table 1]), respectively. The TLR2/1 agonist PAM3CSK4 (Invivogen), the TLR4 agonist lipopolysaccharide (Invivogen), the Class B CpG oligonucleotides ODN 1826 (synthesised by IDT and resuspended in RNase-free TE buffer), the mouse Sting agonist DMXAA (Cayman) and the human STING agonist (compound #3 from (Raanjulu et al., 2018), referred to as GSK herein—kind gift from Cancer Therapeutics CRC, Australia) were used at indicated concentrations. Aspirin (Sigma—A2093) was resuspended in pure medium to 10 mM, filter sterilised and added to the cells at 2 mM final. All ASOs were synthesised by Integrated DNA Technologies (IDT), and resuspended in RNase-free TE buffer, pH 8.0 (Thermo Fisher Scientific). Cell viability was assessed by adding 1× fresh resazurin solution to the wells (10λ solution made up with 7 mg resazurin [Sigma—R7017] dissolved in 3.5 ml PBS, sterile filtered at […]) for 4 h, prior to reading at with a Fluostar OPTIMA (BMG LABTECH) plate-reader (fluorescence: Excitation 535 nm, Emission 590); wells with medium only and 1× resazurin were used as blanks.
Following transfection, the cells were collected from the 6-wells and aliquoted into 96-wells, just before ASO and overnight TLR stimulation (as above described).

HPRT = HPRT mRNA levels in SV40T hTERT fibroblasts, RT-qPCR; format: cell-based, human; conditions: 100 nM ASO transfected overnight
cGAS [4] = target: T2, cGAS; experiment: IFN-driven gene expression in BJ hTERT SV40T fibroblasts (constitutive cGAS activation), RT-qPCR; conditions: ASO transfected 20-100 nM overnight

T2 sequence (Q8N884 whole entry): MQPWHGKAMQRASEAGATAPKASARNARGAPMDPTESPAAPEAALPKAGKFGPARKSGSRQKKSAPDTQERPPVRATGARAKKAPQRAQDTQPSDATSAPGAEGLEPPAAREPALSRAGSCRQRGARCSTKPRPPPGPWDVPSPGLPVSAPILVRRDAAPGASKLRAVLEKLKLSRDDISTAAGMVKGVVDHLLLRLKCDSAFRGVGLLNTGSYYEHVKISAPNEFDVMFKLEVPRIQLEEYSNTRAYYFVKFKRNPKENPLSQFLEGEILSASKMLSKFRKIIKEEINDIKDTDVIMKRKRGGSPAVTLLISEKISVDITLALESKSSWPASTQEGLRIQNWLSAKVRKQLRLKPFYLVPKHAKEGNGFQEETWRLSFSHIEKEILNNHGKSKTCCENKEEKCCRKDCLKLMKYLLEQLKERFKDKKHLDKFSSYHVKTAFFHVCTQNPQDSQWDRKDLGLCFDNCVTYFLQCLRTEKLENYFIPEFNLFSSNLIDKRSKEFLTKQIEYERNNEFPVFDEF
cGAS (Mus musculus, UniProt Q8C6L5), sequence (Q8C6L5 whole entry): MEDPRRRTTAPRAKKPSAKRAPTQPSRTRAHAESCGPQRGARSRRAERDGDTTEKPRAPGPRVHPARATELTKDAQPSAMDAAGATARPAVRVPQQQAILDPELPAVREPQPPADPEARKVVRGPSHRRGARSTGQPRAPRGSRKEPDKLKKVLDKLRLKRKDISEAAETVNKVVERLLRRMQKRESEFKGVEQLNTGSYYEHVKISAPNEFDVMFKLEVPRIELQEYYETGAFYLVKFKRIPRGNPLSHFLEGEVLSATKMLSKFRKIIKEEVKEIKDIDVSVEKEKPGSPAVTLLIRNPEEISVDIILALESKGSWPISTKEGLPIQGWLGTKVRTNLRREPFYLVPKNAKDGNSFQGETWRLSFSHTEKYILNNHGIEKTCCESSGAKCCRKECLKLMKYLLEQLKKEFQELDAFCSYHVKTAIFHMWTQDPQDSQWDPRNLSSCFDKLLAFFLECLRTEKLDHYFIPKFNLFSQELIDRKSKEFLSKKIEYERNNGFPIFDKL
T4 sequence (Q8C6L5 whole entry): as above
T1 sequence (Q86WV6 whole entry): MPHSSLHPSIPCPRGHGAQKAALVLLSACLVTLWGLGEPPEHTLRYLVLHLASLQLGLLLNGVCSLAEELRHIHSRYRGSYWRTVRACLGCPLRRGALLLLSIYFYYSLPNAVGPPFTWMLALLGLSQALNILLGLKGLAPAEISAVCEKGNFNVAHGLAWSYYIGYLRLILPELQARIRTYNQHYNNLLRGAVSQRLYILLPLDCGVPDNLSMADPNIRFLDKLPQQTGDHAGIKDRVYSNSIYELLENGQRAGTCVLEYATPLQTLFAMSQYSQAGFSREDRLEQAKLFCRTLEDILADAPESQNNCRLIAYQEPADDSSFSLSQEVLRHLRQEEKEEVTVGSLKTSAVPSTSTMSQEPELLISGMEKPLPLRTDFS

## +C*+G*+C*T*T*T*T*C*T*C*T*C*C*+G*+G*+T (CGCTTTTCTCTCCGGT; sugars from the 5' end l3 d10 l3, all phosphorothioate, methylation of C not given here) [A1-Mut]
STING
  IP-10 production driven by STING synthetic agonists (in words): not that driven by direct stimulation of STING
cGAS [1]; 1 mM ASO as printed, single preliminary experiment (FIG. 25)
  IP-10 driven by ISD in MG-63, higher dose (in words): only reduced IP-10 driven by ISD
cGAS [1]; indicated concentrations up to 500 nM, ~30 min, ISD overnight (FIG. 24)
  IP-10 after ISD in MG-63, MOE and LNA ASOs (in words): significantly reduced IP-10 levels
TLR3
  IP-10 driven by TLR3 engagement with polyI:C in MG-63 (in words): only reduced IP-10 driven by ISD
cGAS [2]; ~30 min pre-treatment, ISD70 overnight (FIG. 27), read-out: IC50 (IP-10 after ISD70 transfection), MOE and LNA ASOs
  IC50: 75 nM
cGAS [3]; ISD overnight
  ISD-induced IP-10 in immortalised mouse BMDMs (in words): did not significantly potentiate IP-10 production
cGAS [3]; lipofectamine only (Mock)
  IP-10 induced by the ASO transfected alone, no ISD (in words): induced low level IP-10

## mG*mG*mU* mA*mU*mA* mG*mG*A* C*T*C* C*A*G* A*T*G* mU*mU*mU* mC*mC [HPRT-2OMe-847-Mut1]
Mouse cGAS
  inhibition of ISD45-driven ISRE-luciferase (in words): better inhibitor against mouse cGAS activation
HPRT
  HPRT mRNA levels (in words): still able to reduce HPRT levels
cGAS [1]; C2-Mut1 500 nM 6 h, or ASO847 series ~30 min, ISD70 overnight
  inhibition of ISD sensing in MG-63, 2′OMe ASOs (in words): much better inhibitor of cGAS
cGAS [2]; 2′OMe or PS oligos, 100-250 nM, pre-treatment as in figure legends, ISD70 2.5 μg/ml
  inhibition of ISD70-driven IP-10 production (in words): much better inhibitor of cGAS
cGAS [4]
  inhibition of constitutively expressed ISGs (IFIT1, IFIT2, IFI44; in words): as potent as C2-Mutl
